Measurements reported in patent US20190055256A1, “ANTI-VIRAL DRUG” (DORING INTERNATIONAL GMBH, priority 2016, published 2019).

Assay: Physical and chemical characteristics: solubility in solvents
Format: physicochemical

With “sodium salt of 7-methylthio-3-nitro [1, 2, 4] triazolo [5,1-c] [1, 2, 4] triazin-4 (1H)-one” the solubility in acetone (solvent: acetone) was “soluble”, the solubility in chloroform (solvent: chloroform) was “insoluble” and the solubility in dimethylformamide (solvent: dimethylformamide) was “soluble”. For the same substance, the solubility in dimethylsulfoxide (solvent: dimethylsulfoxide) was “soluble” and the solubility in water (solvent: water) was “soluble”.
